This note sets out measurements from ChEMBL document CHEMBL1158963, “Taxinine M, a new tetracyclic taxane from Taxus brevifolia” (J Nat Prod, 1991).

As a reminder, the LC50 is the concentration that kills 50% of the test population. A high value points to a less lethal substance.

The structures appear in SMILES notation. Values after ≈ are worked out from the molar mass of the structure shown.

This series in a line: Toxicity in brine shrimp after 24 hrs. The class given is organism-based. Conditions: artemia, in vivo.
Take `C=C1[C@@H](O)C[C@H](OC(C)=O)[C@@]2(COC(=O)c3ccccc3)[C@@H](OC(C)=O)[C@H](OC(C)=O)[C@@]3(O)[C@]4(C)OC[C@]3(C)C(CC4=O)[C@@H](OC(C)=O)[C@H]12` [TAXININE M]: the 50% lethal concentration (LC50) at 24 h was determined as 620 µg/mL (≈ 903 µM). Regarding `CC(=O)O[C@H]1C(=O)[C@@]2(C)[C@H]([C@H](OC(=O)c3ccccc3)[C@]3(O)C[C@H](OC(=O)[C@H](O)[C@@H](NC(=O)c4ccccc4)c4ccccc4)C(C)=C1C3(C)C)[C@]1(OC(C)=O)CO[C@@H]1C[C@@H]2O` [PACLITAXEL], the LC50 at 24 h turned out to be 0.28 µg/mL (≈ 0.328 µM).

On to `C/C=C(\C)C(=O)N[C@@H](c1ccccc1)[C@@H](O)C(=O)O[C@H]1C[C@@]2(O)[C@@H](OC(=O)c3ccccc3)[C@@H]3[C@]4(OC(C)=O)CO[C@@H]4C[C@H](O)[C@@]3(C)C(=O)[C@H](OC(C)=O)C(=C1C)C2(C)C` [CEPHALOMANNINE], for which the LC50 at 24 h was found to be 0.81 µg/mL (≈ 0.974 µM).
